In US11214803B2, “Modulators of YAP1 expression” (Ionis Pharmaceuticals, Inc., priority 2019, dated 2022):
Strand notation (5' to 3'): a small letter for the sugar, then the base; units joined by * are phosphorothioate-linked, units joined directly phosphodiester-linked; [ ] holds rarer units or linkages, { } end groups; capitals alone tell only the bases. k = constrained ethyl (cEt); [5mC] = 5-methylcytosine; d = 2'-deoxy (DNA)

How the values were obtained:
SCC-9 cells = experiment: Cell proliferation assay in SCC-9 cells, CellTiter-Glo (Example 40); format: cell-based, human; details: free uptake, approximately 144 hours
Protocol: Modified oligonucleotides described in the studies above were tested at various doses in tongue squamous cell carcinoma cell line SCC-9. A control oligonucleotide 792169, described herein above, was also tested.
Cultured SCC-9 cells at a density of 1000 cells/well were treated using free uptake with modified oligonucleotides diluted to concentrations described in the tables below. After approximately 144 hours, cell proliferation was measured using the luminescent cell viability CellTiter-Glo® 2.0 Assay (Promega). Results are presented in the tables below as percent control of the amount of luminescence in samples treated with modified oligonucleotides relative to untreated control cells (% UTC).

Yap1 mRNA [1] = experiment: Yap1 mRNA in UPCI:SCC090 cells, RNA analysis (Example 47); format: cell-based, human; details: free uptake, approximately 48 hours
Protocol: (§1) Modified oligonucleotides described in the studies above were tested at various doses in tongue squamous cell carcinoma cell line UPCI:SCC090. A control oligonucleotide 792169, described herein above, was also tested.
Cultured UPCI:SCC090 cells at a density of 5000 cells per well were treated using free uptake with modified oligonucleotides diluted to concentrations described in the tables below. After approximately 48 hours, Yap1 mRNA levels were measured as previously described using the Human Yap1 primer-probe set RTS4814. Yap1 mRNA levels were normalized to actin-beta content, as measured by primer probe set RTS5002. Results are presented in the tables below as percent control of the amount of Yap1 mRNA relative to untreated control cells (% UTC).

BICR56 cells = experiment: Cell proliferation assay in BICR56 cells, CellTiter-Glo (Example 33); format: cell-based, human; details: free uptake, approximately 144 hours
Protocol: Modified oligonucleotides described in the studies above were tested at various doses in squamous cell carcinoma adherent keratinocyte cell line BICR56. A control oligonucleotide 792169 was also tested.
Cultured BICR56 cells at a density of 1000 cells/well were treated using free uptake with modified oligonucleotides diluted to concentrations described in the tables below. After approximately 144 hours, cell proliferation was measured using the luminescent cell viability CellTiter-Glo® 2.0 Assay (Promega). Results are presented in the tables below as percent control of the amount of luminescence in samples treated with modified oligonucleotides relative to untreated control cells (% UTC).

SNU-899 cells = experiment: Cell proliferation assay in SNU-899 cells, CellTiter-Glo (Example 43); format: cell-based, human; details: free uptake, approximately 144 hours
Protocol: Modified oligonucleotides described in the studies above were tested at various doses in laryngeal squamous cell carcinoma cell line SNU-899. A control oligonucleotide 792169, described herein above, was also tested.
Cultured SNU-899 cells at a density of 1000 cells/well were treated using free uptake with modified oligonucleotides diluted to concentrations described in the tables below. After approximately 144 hours, cell proliferation was measured using the luminescent cell viability CellTiter-Glo® 2.0 Assay (Promega). Results are presented in the tables below as percent control of the amount of luminescence in samples treated with modified oligonucleotides relative to untreated control cells (% UTC).

NCI H747 cells = experiment: Cell proliferation assay in NCI H747 cells, CellTiter-Glo (Example 31); format: cell-based, human; details: free uptake, 7 days
Protocol: Modified oligonucleotides described in the studies above were tested at various doses in colorectal adenocarcinoma cell line NCI H747. A control oligonucleotide 792169 was also tested.
Cultured NCI H747 cells at a density of 3000 cells/well were treated using free uptake with modified oligonucleotides diluted to concentrations described in the tables below. After 7 days, cell proliferation was measured using the luminescent cell viability CellTiter-Glo® 2.0 Assay (Promega). Results are presented in the tables below as percent control of the amount of luminescence in samples treated with modified oligonucleotides relative to untreated control cells (% UTC).

UPCI:SCC090 cells = experiment: Cell proliferation assay in UPCI:SCC090 cells, CellTiter-Glo (Example 47); format: cell-based, human; details: free uptake, approximately 144 hours
Protocol: as §1
Cultured UPCI:SCC090 cells at a density of 1000 cells/well were treated using free uptake with modified oligonucleotides diluted to concentrations described in the tables below. After approximately 144 hours, cell proliferation was measured using the luminescent cell viability CellTiter-Glo® 2.0 Assay (Promega). Results are presented in the tables below as percent control of the amount of luminescence in samples treated with modified oligonucleotides relative to untreated control cells (% UTC).

Yap1 mRNA [2] = experiment: Yap1 mRNA levels in CAL33 xenograft tumors (Example 29); format: in vivo, human; details: CAL33 xenografts, 50 mg/kg twice weekly for two weeks, relative to PBS treated animals
Protocol: (§2) A xenograft tumor model was used to evaluate activity of modified oligonucleotides targeted to human Yap1. One million CAL33 cells in 30% matrigel were implanted subcutaneously into the flanks of female CrTac:NCr-Foxnlnu (Taconic) mice. When tumors reached an average volume of 100 mm^3, approximately two weeks post-implantation, groups of eight mice were administered at 50 mg/kg twice weekly with modified oligonucleotides for two weeks. ION 792169 was administered as a control.
Tumor samples were collected for measurement of Yap1 mRNA levels by RT-qPCR. Yap1 mRNA levels were measured as previously described using the Human Yap1 primer-probe set RTS4814. Yap1 mRNA levels were normalized to actin-beta content, as measured by primer probe set RTS5002. Results are presented in the tables below as percent control of the amount of Yap1 mRNA relative to PBS treated animals (% control).

CAL33 xenograft tumor = experiment: Tumor volume and tumor weight in CAL33 xenograft tumor model (Example 29); format: in vivo, human; details: 50 mg/kg twice weekly for two weeks; for Average Tumor weight: CAL33 xenograft mice, end of study; for Average Tumor Volume: CAL33 xenografts
Protocol: as §2
Tumor volume was measured at the indicated days in the table below. Tumor weight was determined at end of study. Mice were sacrificed when tumors from PBS-treated mice reached 2,000 mm3.

Substance	Antiproliferative effect (cell proliferation, luminescence) (SCC-9 cells; 0.04 μM) [% UTC]	Antiproliferative effect (cell proliferation, luminescence) (SCC-9 cells; 0.2 μM) [% UTC]	Antiproliferative effect (cell proliferation, luminescence) (SCC-9 cells; 1 μM) [% UTC]	Antiproliferative effect (cell proliferation, luminescence) (SCC-9 cells; 5 μM) [% UTC]	human Yap1 mRNA expression (Yap1 mRNA [1]; 0.04 μM) [% UTC]	human Yap1 mRNA expression (Yap1 mRNA [1]; 0.2 μM) [% UTC]	human Yap1 mRNA expression (Yap1 mRNA [1]; 1 μM) [% UTC]	human Yap1 mRNA expression (Yap1 mRNA [1]; 5 μM) [% UTC]	Antiproliferative effect (cell proliferation, luminescence) (BICR56 cells; 0.04 μM) [% UTC]	Antiproliferative effect (cell proliferation, luminescence) (BICR56 cells; 0.2 μM) [% UTC]	Antiproliferative effect (cell proliferation, luminescence) (BICR56 cells; 1 μM) [% UTC]	Antiproliferative effect (cell proliferation, luminescence) (BICR56 cells; 5 μM) [% UTC]	Antiproliferative effect (cell proliferation, luminescence) (SNU-899 cells; 0.04 μM) [% UTC]	Antiproliferative effect (cell proliferation, luminescence) (SNU-899 cells; 0.2 μM) [% UTC]	Antiproliferative effect (cell proliferation, luminescence) (SNU-899 cells; 1 μM) [% UTC]	Antiproliferative effect (cell proliferation, luminescence) (SNU-899 cells; 5 μM) [% UTC]	Antiproliferative effect (cell proliferation, luminescence) (NCI H747 cells; 0.04 μM) [% UTC]	Antiproliferative effect (cell proliferation, luminescence) (NCI H747 cells; 0.2 μM) [% UTC]	Antiproliferative effect (cell proliferation, luminescence) (NCI H747 cells; 1 μM) [% UTC]	Antiproliferative effect (cell proliferation, luminescence) (NCI H747 cells; 5 μM) [% UTC]	other results
715487 (kA*kT*kT*dA*d[5mC]*dT*dT*d[5mC]*dA*dT*dA*dG*d[5mC]*kT*kT*kA) [compound 715487]	97	73	51	34	70	37	26	14	70	26	9	4	82	78	71	62	91	86	65	42	Antiproliferative effect (cell proliferation, luminescence) (UPCI:SCC090 cells; 0.04 μM): 92 % UTC; Antiproliferative effect (cell proliferation, luminescence) (UPCI:SCC090 cells; 0.2 μM): 94 % UTC; Antiproliferative effect (cell proliferation, luminescence) (UPCI:SCC090 cells; 1 μM): 72 % UTC; Antiproliferative effect (cell proliferation, luminescence) (UPCI:SCC090 cells; 5 μM): 68 % UTC
1198728 (TATTAGAGTATGTGGC; modified gapmer, further chemistry not given here) [compound 1198728]	–	–	–	–	–	–	–	–	–	–	–	–	–	–	–	–	–	–	–	–	Yap1 mRNA levels in tumors, % control (Yap1 mRNA [2]): 40 % control; Average Tumor weight (CAL33 xenograft tumor): 0.88 g; Average Tumor Volume (CAL33 xenograft tumor; day 10 post-implantation): 113 mm^3; Average Tumor Volume (CAL33 xenograft tumor; day 13 post-implantation): 253 mm^3; Average Tumor Volume (CAL33 xenograft tumor; day 17 post-implantation): 423 mm^3; Average Tumor Volume (CAL33 xenograft tumor; day 21 post-implantation): 621 mm^3; Average Tumor Volume (CAL33 xenograft tumor; day 24 post-implantation): 835 mm^3; Average Tumor Volume (CAL33 xenograft tumor; day 27 post-implantation): 988 mm^3; Average Tumor Volume (CAL33 xenograft tumor; day 31 post-implantation): 1123 mm^3; Average Tumor Volume (CAL33 xenograft tumor; day 34 post-implantation): 1233 mm^3; Average Tumor Volume (CAL33 xenograft tumor; day 38 post-implantation): 1239 mm^3; Average Tumor Volume (CAL33 xenograft tumor; day 40 post-implantation): 1277 mm^3; Average Tumor Volume (CAL33 xenograft tumor; day 44 post-implantation): 1277 mm^3
1198440 (AAGTGTATGTCAGAAG; cEt, 2'-MOE, 5-methylcytosine, phosphorothioate modifications, further chemistry not given here) [compound 1198440]	88	46	35	31	60	26	10	5	28	10	6	4	82	75	69	66	87	66	36	18	Yap1 mRNA levels in tumors, % control (Yap1 mRNA [2]): 12 % control; Average Tumor weight (CAL33 xenograft tumor): 0.36 g; Average Tumor Volume (CAL33 xenograft tumor; day 10 post-implantation): 115 mm^3; Average Tumor Volume (CAL33 xenograft tumor; day 13 post-implantation): 279 mm^3; Average Tumor Volume (CAL33 xenograft tumor; day 17 post-implantation): 376 mm^3; Average Tumor Volume (CAL33 xenograft tumor; day 21 post-implantation): 574 mm^3; Average Tumor Volume (CAL33 xenograft tumor; day 24 post-implantation): 651 mm^3; Average Tumor Volume (CAL33 xenograft tumor; day 27 post-implantation): 818 mm^3; Average Tumor Volume (CAL33 xenograft tumor; day 31 post-implantation): 888 mm^3; Average Tumor Volume (CAL33 xenograft tumor; day 34 post-implantation): 857 mm^3; Average Tumor Volume (CAL33 xenograft tumor; day 38 post-implantation): 770 mm^3; Average Tumor Volume (CAL33 xenograft tumor; day 40 post-implantation): 746 mm^3; Average Tumor Volume (CAL33 xenograft tumor; day 44 post-implantation): 834 mm^3; Antiproliferative effect (cell proliferation, luminescence) (UPCI:SCC090 cells; 0.04 μM): 101 % UTC; Antiproliferative effect (cell proliferation, luminescence) (UPCI:SCC090 cells; 0.2 μM): 92 % UTC; Antiproliferative effect (cell proliferation, luminescence) (UPCI:SCC090 cells; 1 μM): 75 % UTC; Antiproliferative effect (cell proliferation, luminescence) (UPCI:SCC090 cells; 5 μM): 70 % UTC
